Data: PubChem BioAssay (NCI)
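Five concentrations, 48 hours, 96-well plates. TGI: total growth inhibition.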

Key:
Test in all cases: DTP human tumour cell line panel, 48 h
786-0 renal = test system: 786-0 renal
A498 renal = test system: A498 renal
A549 NSCLC = test system: A549 NSCLC
ACHN renal = test system: ACHN renal
BT-549 breast = test system: BT-549 breast
CAKI-1 renal = test system: CAKI-1 renal
COLO 205 colon = test system: COLO 205 colon
DU-145 prostate = test system: DU-145 prostate
EKVX NSCLC = test system: EKVX NSCLC
HCC-2998 colon = test system: HCC-2998 colon
HCT-116 colon = test system: HCT-116 colon
HCT-15 colon = test system: HCT-15 colon
HL-60(TB) leukemia = test system: HL-60(TB) leukemia
HOP-62 NSCLC = test system: HOP-62 NSCLC
HOP-92 NSCLC = test system: HOP-92 NSCLC
HS 578T breast = test system: HS 578T breast
HT29 colon = test system: HT29 colon
IGROV1 ovarian = test system: IGROV1 ovarian
K-562 leukemia = test system: K-562 leukemia
KM12 colon = test system: KM12 colon
LOX IMVI melanoma = test system: LOX IMVI melanoma
M14 melanoma = test system: M14 melanoma
MALME-3M melanoma = test system: MALME-3M melanoma
MCF7 breast = test system: MCF7 breast
MDA-MB-231 breast = test system: MDA-MB-231 breast
MDA-MB-435 = test system: MDA-MB-435
MDA-N = test system: MDA-N
MOLT-4 leukemia = test system: MOLT-4 leukemia
NCI-H226 lung = test system: NCI-H226 lung
NCI-H23 lung = test system: NCI-H23 lung
NCI-H460 lung = test system: NCI-H460 lung
NCI-H522 lung = test system: NCI-H522 lung
NCI/ADR-RES ovarian = test system: NCI/ADR-RES ovarian
OVCAR-3 ovarian = test system: OVCAR-3 ovarian
OVCAR-4 ovarian = test system: OVCAR-4 ovarian
OVCAR-5 ovarian = test system: OVCAR-5 ovarian
OVCAR-8 ovarian = test system: OVCAR-8 ovarian
PC-3 prostate = test system: PC-3 prostate
RPMI-8226 leukemia = test system: RPMI-8226 leukemia
RXF 393 renal = test system: RXF 393 renal
SF-268 CNS = test system: SF-268 CNS
SF-295 CNS = test system: SF-295 CNS
SF-539 CNS = test system: SF-539 CNS
SK-MEL-28 melanoma = test system: SK-MEL-28 melanoma
SK-MEL-5 melanoma = test system: SK-MEL-5 melanoma
SN12C renal = test system: SN12C renal
SNB-19 CNS = test system: SNB-19 CNS
SNB-75 CNS = test system: SNB-75 CNS
SR leukemia = test system: SR leukemia
SW-620 colon = test system: SW-620 colon
T-47D breast = test system: T-47D breast
TK-10 renal = test system: TK-10 renal
U251 CNS = test system: U251 CNS
UACC-257 melanoma = test system: UACC-257 melanoma
UO-31 renal = test system: UO-31 renal

CO[C@@H]1C[C@H]2[C@@H]3CC[C@H]([C@H](C)CO)[C@@]3(C)CC[C@@H]2[C@@]2(C)CC[C@H]3C[C@]312 was tested, and the TGI (786-0 renal) was > 100 µM, the TGI (A498 renal) was > 100 µM and the TGI (A549 NSCLC) was > 100 µM. For the same molecule, the TGI (ACHN renal) was > 100 µM, the TGI (BT-549 breast) was 49.9 µM and the TGI (CAKI-1 renal) was > 100 µM. For the same molecule, the TGI (COLO 205 colon) was 35.3 µM, the TGI (DU-145 prostate) was > 100 µM and the TGI (EKVX NSCLC) was > 100 µM. For the same molecule, the TGI (HCC-2998 colon) was > 100 µM, the TGI (HCT-116 colon) was > 100 µM and the TGI (HCT-15 colon) was > 100 µM. The TGI (HL-60(TB) leukemia) was 47.2 µM, the TGI (HOP-62 NSCLC) was > 100 µM and the TGI (HOP-92 NSCLC) was 63.6 µM. The TGI (HS 578T breast) was > 100 µM, the TGI (HT29 colon) was 40.8 µM and the TGI (IGROV1 ovarian) was > 100 µM. For the same molecule, the TGI (K-562 leukemia) was > 100 µM, the TGI (KM12 colon) was 35.9 µM and the TGI (LOX IMVI melanoma) was 46.5 µM. The TGI (M14 melanoma) was > 100 µM, the TGI (MALME-3M melanoma) was > 100 µM and the TGI (MCF7 breast) was 47.8 µM. The TGI (MDA-MB-231 breast) was > 100 µM, the TGI (MDA-MB-435) was > 100 µM and the TGI (MDA-N) was > 100 µM. The TGI (MOLT-4 leukemia) was > 100 µM, the TGI (NCI-H226 lung) was > 100 µM and the TGI (NCI-H23 lung) was > 100 µM. For the same molecule, the TGI (NCI-H460 lung) was 74.8 µM, the TGI (NCI-H522 lung) was > 100 µM and the TGI (NCI/ADR-RES ovarian) was > 100 µM. For the same molecule, the TGI (OVCAR-3 ovarian) was > 100 µM, the TGI (OVCAR-4 ovarian) was > 100 µM and the TGI (OVCAR-5 ovarian) was > 100 µM. The TGI (OVCAR-8 ovarian) was > 100 µM, the TGI (PC-3 prostate) was 92.6 µM and the TGI (RPMI-8226 leukemia) was 58 µM. For the same molecule, the TGI (RXF 393 renal) was > 100 µM, the TGI (SF-268 CNS) was > 100 µM and the TGI (SF-295 CNS) was 85.9 µM. For the same molecule, the TGI (SF-539 CNS) was > 100 µM, the TGI (SK-MEL-28 melanoma) was > 100 µM and the TGI (SK-MEL-5 melanoma) was 78.1 µM. For the same molecule, the TGI (SN12C renal) was > 100 µM, the TGI (SNB-19 CNS) was > 100 µM and the TGI (SNB-75 CNS) was > 100 µM. The TGI (SR leukemia) was > 100 µM, the TGI (SW-620 colon) was > 100 µM and the TGI (T-47D breast) was > 100 µM. For the same molecule, the TGI (TK-10 renal) was > 100 µM, the TGI (U251 CNS) was 85.4 µM and the TGI (UACC-257 melanoma) was 86.5 µM. For the same molecule, the TGI (UO-31 renal) was > 100 µM.
